Experimental findings from patent US4045433A, “1,3,4,5-Tetrahydro-2H-1,4-benzodiazepin-2-ones” (priority 1974, dated 1977) are described below.

Data set [1] has as its system CFLP mice. Description: Antimetrazole activity (protection from tonic extensor spasm). Particulars: 1 hour before test, metrazole 125 mg./kg. s.c.; for ED50: Mus musculus, 1 h. The format is in vivo. Here is the method: 1. The first series of examinations was carried out according to the method of Everett and Richards (Everett G. M., Richards R. K.: J. Pharm. Exp. Ther. 81, 402 (1944)). 125 mg./kg. of metrazole were administered subcutaneously to the test animals. 1 hour after the administration the animals protected from tonic extensor spasm and the surviving animals were counted.

The test system of data set [2] is CFLP mice. Kind of data set: Hexobarbital narcosis potentiating effect. The format is in vivo. As to conditions: screen test, i.p., 1 hour before hexobarbital 60 mg./kg. into tail vein; change of sleeping period related to controls. The method, then: The hexobarbital narcosis potentiating effect was determined by the method of Rumke et al. (Arch. Int. […]. The change of sleeping period was expressed in percent related to the controls.

Data set [3] in a line: Rotarod test (muscle incoordination and ataxia). The format is in vivo, CFLP mice. As to conditions: mouse, in vivo, 1 hour before test. Here is the method:
(§1) a. Rotarod test: The test was carried out according to the method of Kinnard and Carr (Brit. J. Pharmacol. Exp. Ther. 121, 354 (1957)). […] The ED50 values were calculated from the percentage of the animals falling down within 120 sec.
For orientation: Falling from the rotarod earlier than controls is read as motor impairment.

The next data set in a line: Acute toxicity. Particulars: mouse, in vivo, death rate observed for one week. The class given is in vivo, CFLP mice.
In data set [4] the test system is CFLP mice. Kind of data set: Maximum electroshock (anti-electroshock activity). The format is in vivo. Particulars: 1 hour before test; for ED50: Mus musculus, 1 h. From the text:
2. Maximum electroshock stimulus (100 Hz, 30 V, 0.2 sec.) was applied according to the method of Swinyard et al. (Swinyard E. A., Brown W. C., Goodman, L. S.: J. Pharmacol. 106, 319 (1952)). The animals showing no tonix extension on the hind limb upon stimulus were considered as protected.

In data set [5] the test system is CFLP mice. Kind of data set: Rotarod test (muscle incoordination and ataxia). The format is in vivo. Particulars: for Rotarod ED50 : Antimetrazole ED50: ratio (1) of Table 2, p.o. Here is the method:
as §1

The subject of data set [6] is CFLP mice. Description: Acute toxicity. The format is in vivo. Particulars: i.p.; death rate observed for one week; 10080 min.
Data set [7] in a line: Traction test (muscle incoordination and ataxia). Also noted: species or system CFLP mice. Particulars: mouse, in vivo, po, 1 hour before test; read-out: Traction test ED50. The method, then:
b. Traction test: The test was carried out according to the method of Theobald et al. (Arch. int. Pharmacodyn. 148, 560 (1964)). The two anterior limbs of the test animals were placed onto a horizontal rod so as to let the animals clutch the rod. […] The ED50 values were calculated from the percentage of the animals showing negative response.

The test system of data set [8] is CFLP mice. Kind of data set: Antagonism of strychnine spasm. The format is in vivo. Particulars: for ED50: Mus musculus, po, 1 h, read-out: Antistrychnine activity ED50; for Antistrychnine ED50 : Antimetrazole: ratio (2) of Table 2, p.o. Here is the method: Tonic extensor spasm was produced by administering an intraperitoneal dosage of 2 mg./kg. of strychnine to the animals (Kerley T. L., Richards A. G., Begley, R. W., Abren, B. E. and Weaver, L. C: J. Pharmacol. Exp. Ther. 132, 360 (1961)). The animals showing no spasm were considered as protected.

The test system of data set [9] is CFLP mice. Description: Disappearance of righting reflex. The class given is in vivo. Particulars: Mus musculus, po.
The test system of data set [10] is CFLP mice. Description: Narcosis potentiating effect (sodium barbiturate). As to conditions: for ED50: Mus musculus, po, 1 hour before sodium barbiturate 100 mg./kg. i.p.; for Narcosis potentiation ED50 : Antimetrazole ED50: ratio (3) of Table 2, p.o. The format is in vivo.
The mark [11] stands for this setting: ip, screen test, i.p., read-out: Antimetrazole ED50.
The mark [12] stands for this setting: ip, screen test, i.p., read-out: Rotarod ED50.
[13] abbreviates: ip, screen test, i.p., read-out: Anti-electroshock ED50 ip.
The mark [14] stands for this setting: po, p.o., 95% confidence limit in next line, read-out: Antimetrazole activity ED50.
The mark [15] stands for this setting: po, p.o., 100 Hz, 30 V, 0.2 sec., read-out: Anti-electroshock activity ED50.

Like-named read-outs stand apart in the source and are kept apart here.

For the molecule `CN1C(=O)CN(C(N)=O)C(c2ccccc2)c2cc(Cl)ccc21` (single isomer, unassigned; (+)) [Example 55, (+)-1-Methyl-4-carbamoyl-5-phenyl-7-chloro-1,3,4,5-tetrahydro-2H-1,4-benzodiazepine-2-one], the results for the ED50 in the data set on CFLP mice [1] (setting [11]) and in the data set with CFLP mice [4] (setting [13]) were 1.65 mg/kg and 10 mg/kg, respectively. Also, in the data set on CFLP mice [2], the “Hexobarbital potentiation, %” value is reported as 368%. Moreover, in [3] (setting [12]), the TD50 at 1 h is 7 mg/kg. In addition, the LD50 at 168 h in “Acute toxicity” (ip, read-out: LD50 i.p.) was found to be 611 mg/kg.

In the case of `CN1C(=O)CN(C(N)=O)C(c2ccccc2)c2cc(Cl)ccc21` (single isomer, unassigned; (-)) [Example 56, (-)-1-Methyl-4-carbamoyl-5-phenyl-7-chloro-1,3,4,5-tetrahydro-2H-1,4-benzodiazepine-2-one], in the data set on CFLP mice [1] (screen test, i.p., 60 min), the “Antimetrazole ED50” value stood at 2.2 mg/kg. Also, in the data set with CFLP mice [2], the “Hexobarbital potentiation, %” value is 112%. The “Rotarod ED50” value in the data set with CFLP mice [5] (screen test, i.p., 1 hour before test, 60 min) was found to be 13.0 mg/kg. The same molecule displayed an LD50 i.p. with CFLP mice [6] of 661.2 mg/kg. Further, in the data set with CFLP mice [4] (screen test, i.p., 60 min), the “Anti-electroshock ED50 ip.” value is 8.4 mg/kg.

`CNC1=Nc2ccc(Cl)cc2C(c2ccccc2)=[N+]([O-])C1` [Chlorodiazepoxide, reference compound]: the TD50 at 1 h was found to be 31.2 mg/kg in data set [7] and 12.2 mg/kg in data set [3] (po, 12/min., 120 sec., read-out: Rotarod test ED50). Further, the ED50 in the data set with CFLP mice [1] (setting [14]) came out at 2.47 mg/kg; with CFLP mice [8] it was 28.4 mg/kg; with CFLP mice [9], 436 mg/kg; in the data set with CFLP mice [10], 8.1 mg/kg; with CFLP mice [4] (setting [15]) it was 23.5 mg/kg. Besides, the “Antistrychnine ED50 : Antimetrazole” value in the data set with CFLP mice [8] was 11.5. In the data set with CFLP mice [5], the “Rotarod ED50 : Antimetrazole ED50” value is on record as 4.9. In addition, the LD50 at 168 h in “Acute toxicity” (po, read-out: Acute toxicity (LD50)) was found to be 850 mg/kg. Moreover, the “Narcosis potentiation ED50 : Antimetrazole ED50” value in the data set on CFLP mice [10] was 3.3.

For the molecule `CN1C(=O)CN=C(c2ccccc2)c2cc(Cl)ccc21` [Diazepam], the ED50 turned out to be 0.75 mg/kg with CFLP mice [1] (setting [14]); 5.71 mg/kg in the data set on CFLP mice [8]; 238 mg/kg in the data set with CFLP mice [9]; 3.9 mg/kg with CFLP mice [10]; 8.29 mg/kg in the data set with CFLP mice [4] (setting [15]). For the same molecule, the “Antistrychnine ED50 : Antimetrazole” value in the data set on CFLP mice [8] amounted to 7.6. The “Rotarod ED50 : Antimetrazole ED50” value with CFLP mice [5] came to 4.3. Also, in the data set on CFLP mice [10], the “Narcosis potentiation ED50 : Antimetrazole ED50” value turned out to be 5.2.

For the molecule `CCOC(=O)N1CC(=O)Nc2ccc([N+](=O)[O-])cc2C1c1ccccc1` (centres unmarked) [Example 2, 4-Ethoxycarbonyl-5-phenyl-7-nitro-1,3,4,5-tetrahydro-2H-1,4-benzodiazepine-2-one], the ED50 is 12.5 mg/kg in the data set with CFLP mice [1] (setting [11]) and 14 mg/kg in the data set with CFLP mice [4] (setting [13]). Also, the “Hexobarbital potentiation, %” value in the data set with CFLP mice [2] is reported as 168%. Further, the LD50 at 168 h in “Acute toxicity” (ip, read-out: LD50 i.p.) was > 1600 mg/kg.

Turning to `NC(=O)N1CC(=O)Nc2ccc(Cl)cc2C1c1ccccc1` (centres unmarked) [Example 13, 4-Carbamoyl-5-phenyl-7-chloro-1,3,4,5-tetrahydro-2H-1,4-benzodiazepine-2-on], the ED50 came out at 4.9 mg/kg in the data set on CFLP mice [1] (setting [11]) and 14 mg/kg with CFLP mice [4] (setting [13]). Besides, the “Hexobarbital potentiation, %” value with CFLP mice [2] was 89%. Also, in data set [3] (setting [12]), the TD50 at 1 h worked out at 13.5 mg/kg. Further, the LD50 at 168 h in “Acute toxicity” (ip, read-out: LD50 i.p.) worked out at 367 mg/kg.

In the case of `CNC(=O)N1CC(=O)Nc2ccc([N+](=O)[O-])cc2C1c1ccccc1` (centres unmarked) [Example 14, 4-Methylcarbamoyl-5-phenyl-7-nitro-1,3,4,5-tetrahydro-2H-1,4-benzodiazepine-2-one], the ED50 turned out to be 19.5 mg/kg in the data set with CFLP mice [1] (setting [11]) and 20 mg/kg in the data set on CFLP mice [4] (setting [13]). Besides, the “Hexobarbital potentiation, %” value in the data set on CFLP mice [2] is listed as 75%. For the same molecule, the LD50 at 168 h in “Acute toxicity” (ip, read-out: LD50 i.p.) is 936 mg/kg.

With `CNC(=O)N1CC(=O)Nc2ccccc2C1c1ccccc1` (centres unmarked) [Example 15, 4-Methylcarbamoyl-5-phenyl-1,3,4,5-tetrahydro-2H-1,4-benzodiazepine-2-one], the ED50 in the data set with CFLP mice [1] (setting [11]) and with CFLP mice [4] (setting [13]) was 20 mg/kg throughout. Moreover, in the data set on CFLP mice [2], the “Hexobarbital potentiation, %” value was found to be 93%. In addition, the LD50 at 168 h in the data set “Acute toxicity” (ip, read-out: LD50 i.p.) is > 500 mg/kg.

As to `CNC(=O)N1CC(=O)Nc2ccc(Cl)cc2C1c1ccccc1` (centres unmarked) [Example 16, 4-Methylcarbamoyl-5-phenyl-7-chloro-1,3,4,5-tetrahydro-2H-1,4-benzodiazepine-2-one], the ED50 with CFLP mice [1] (setting [11]) came to 4.1 mg/kg; in the data set with CFLP mice [4] (setting [13]), 14 mg/kg. In the data set on CFLP mice [2], the “Hexobarbital potentiation, %” value turned out to be 104%. Moreover, the LD50 at 168 h in the data set “Acute toxicity” (ip, read-out: LD50 i.p.) stood at 800 mg/kg.

Regarding `CCCCNC(=O)N1CC(=O)Nc2ccc([N+](=O)[O-])cc2C1c1ccccc1` (centres unmarked) [Example 18, 4-n-Butylcarbamoyl-5-phenyl-7-nitro-1,3,4,5-tetrahydro-2H-1,4-benzodiazepine-2-one], the ED50 in the data set with CFLP mice [1] (setting [11]) was found to be 14 mg/kg; with CFLP mice [4] (setting [13]) it was 20 mg/kg. The “Hexobarbital potentiation, %” value in the data set on CFLP mice [2] is reported as 77%. Moreover, in “Acute toxicity” (ip, read-out: LD50 i.p.), the LD50 at 168 h was 320 mg/kg.

Consider `CC(NC(=O)N1CC(=O)N(C)c2ccc(Cl)cc2C1c1ccccc1)c1ccccc1` (centres unmarked) [Example 24, 1-Methyl-4-(1-methyl-benzylcarbamoyl)-5-phenyl-7-chloro-1,3,4,5-tetrahydro-2H-1,4-benzodiazepine-2-one], for which the ED50 was 13.5 mg/kg with CFLP mice [1] (setting [11]) and 20 mg/kg in the data set on CFLP mice [4] (setting [13]). Also, in the data set with CFLP mice [2], the “Hexobarbital potentiation, %” value was 96%. Also, the LD50 at 168 h in the data set “Acute toxicity” (ip, read-out: LD50 i.p.) came to 271 mg/kg.

On to `CC(=O)N1CC(=O)N(C)c2ccc(Cl)cc2C1c1ccccc1` (centres unmarked) [Example 28, 1-Methyl-4-acetyl-5-phenyl-7-chloro-1,3,4,5-tetrahydro-2H-1,4-benzodiazepine-2-one], for which the ED50 is 7 mg/kg in the data set with CFLP mice [1] (setting [11]) and 20 mg/kg in the data set on CFLP mice [4] (setting [13]). Further, the “Hexobarbital potentiation, %” value in the data set on CFLP mice [2] amounted to 125%. Moreover, the median lethal dose (LD50) at 168 h in the data set “Acute toxicity” (ip, read-out: LD50 i.p.) turned out to be 312 mg/kg.

On to `CN1C(=O)CN(C(=O)c2ccccc2Cl)C(c2ccccc2)c2cc(Cl)ccc21` (centres unmarked) [Example 31, 1-Methyl-4-(o-chlorobenzoyl)-5-phenyl-7-chloro-1,3,4,5-tetrahydro-2H-1,4-benzodiazepine-2-one], for which the ED50 in the data set on CFLP mice [1] (setting [11]) is 14 mg/kg; in the data set on CFLP mice [4] (setting [13]), 20 mg/kg. Besides, in the data set with CFLP mice [2], the “Hexobarbital potentiation, %” value is listed as 85%. Further, in “Acute toxicity” (ip, read-out: LD50 i.p.), the LD50 at 168 h was > 1600 mg/kg.

On to `CN1C(=O)CN(C=O)C(c2ccccc2)c2cc(Cl)ccc21` (centres unmarked) [Example 33, 1-Methyl-4-formyl-5-phenyl-7-chloro-1,3,4,5-tetrahydro-2H-1,4-benzodiazepine-2-one], for which the ED50 in the data set with CFLP mice [1] (setting [11]) amounted to 3.4 mg/kg; in the data set on CFLP mice [4] (setting [13]), 14 mg/kg. Moreover, the “Hexobarbital potentiation, %” value in the data set on CFLP mice [2] is on record as 110%. In addition, the TD50 at 1 h in data set [3] (setting [12]) stood at 23 mg/kg. The LD50 at 168 h in the data set “Acute toxicity” (ip, read-out: LD50 i.p.) amounted to 688 mg/kg.

In general, ED50 refers to the midpoint of the dose-response relation. The LD50 is the dose expected to kill half of the subjects tested.
